{
  "source": "patent US20230150920A1",
  "about": "“SALTS AND SOLID FORMS OF 4-BROMO-2,5-DIMETHOXYPHENETHYLAMINE” (priority 2021, published 2023)",
  "key": {"[1]": {"test": "Dynamic vapor sorption (DVS) with XRPD of the post-DVS sample", "assay_type": "physicochemical", "details": "for hygroscopicity based on DVS data: 5 to 95% RH; for moisture gain by DVS: adsorption 5 to 95% RH; for behaviour on desorption / form change by XRPD of post-DVS sample: desorption 95 to 5% RH", "how_it_was_run": "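Sample (about 2-25 mg depending on run) held at 25° C. and stepped in 10% RH increments 5→95% RH (adsorption) then 95→5% RH (desorption). Each step advanced at 0.01% weight change (in 5 min for later runs) or after a maximum of 1 h or 90 min; percent weight change reported.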"}, "[2]": {"details": "for recrystallization of non-crystalline material upon heating (XRPD): heated at ~110° C. for 10 minutes"}, "[3]": {"details": "Vapor stress, RT", "from_the_text": "The sample was then centrifuged, while still warm, and the mother liquor was decanted. The isolated solids were air-dried and analyzed by XRPD."}, "[4]": {"details": "93% RH, RT"}, "[5]": {"details": "25° C., listed as Non-crystalline 2C-B tartrate"}, "[6]": {"details": "25° C., listed as non-crystalline 2C-B tartrate"}},
  "note": "Entries after “also recorded” stand apart in the source; their conditions may differ. Like-named read-outs stand apart in the source and are kept apart here.",
  "data": [
    {"molecule": "COc1cc(CCN)c(OC)cc1Br.O=C(O)C(O)C(O)C(=O)O", "note": "[non-crystalline 2C-B Tartrate, 4-bromo-2,5-dimethoxyphenethylamine (2C-B) tartrate]", "values": [
      {"measurement": "hygroscopicity based on DVS data", "setting": "[1]; [5]", "value": "hygroscopic"},
      {"measurement": "hygroscopicity based on DVS data", "setting": "[1]; [6]", "value": "hygroscopic"},
      {"measurement": "moisture gain by DVS", "setting": "[1]; [5]", "value": 11.7, "unit": "%"},
      {"measurement": "moisture gain by DVS", "setting": "[1]; [6]", "value": 11.7, "unit": "%"},
      {"measurement": "moisture gain by DVS above 55% RH", "setting": "[1]; above 55% RH", "value": 9.7, "unit": "%"},
      {"measurement": "behaviour on desorption / form change by XRPD of post-DVS sample", "setting": "[1]; listed as Non-crystalline 2C-B tartrate", "value": "remained non-crystalline"},
      {"measurement": "behaviour on desorption / form change by XRPD of post-DVS sample", "setting": "[1]; listed as non-crystalline 2C-B tartrate", "value": "remains non-crystalline"},
      {"measurement": "DVS desorption weight loss, 95-5% RH", "setting": "[1]; desorption, 95-5% RH, 25° C.", "value": "95-5% RH: 12.3% loss"},
      {"measurement": "post-DVS XRPD", "setting": "[1]; solids after DVS cycle, NC = non-crystalline, br pk = broad peak", "value": "NC + br pk (25°)"},
      {"measurement": "DVS sorption, weight gain 5-55% RH", "setting": "[1]; sorption, 5-55% RH, 25° C.", "value": "5-55% RH: 2.0% gain"},
      {"measurement": "DVS sorption total gain", "setting": "[1]; sorption, 5-95% RH, 25° C.", "value": "Total gain: 11.7%"},
      {"measurement": "DVS sorption, weight gain 55-95% RH", "setting": "[1]; sorption, 55-95% RH, 25° C.", "value": "55-95% RH: 9.7% gain"},
      {"measurement": "XRPD result after heat stress", "setting": "[2]; 60° C., 9 d", "value": "NC + br pk (23°)"},
      {"measurement": "XRPD result after heat stress", "setting": "[2]; 110° C., 10 min.", "value": "Tartrate (Form 1) +"},
      {"measurement": "recrystallization of non-crystalline material upon heating (XRPD)", "setting": "[2]", "value": "recrystallizes to Tartrate (Form 1) upon heating; also recorded: crystallized to 2C-B Tartrate (Form 1)"},
      {"measurement": "recrystallization of non-crystalline material upon heating (XRPD)", "setting": "[2]; listed as non-crystalline tartrate", "value": "crystallization to Tartrate (Form 1) was observed by XRPD"},
      {"measurement": "XRPD result after vapor stress", "setting": "[3]; EtOH", "value": "Tartrate (Form 1)"},
      {"measurement": "XRPD result after vapor stress", "setting": "[3]; H2O", "value": "Tartrate (Form 1)"},
      {"measurement": "XRPD result after vapor stress", "setting": "[3]; acetone", "value": "Tartrate (Form 1)"},
      {"measurement": "XRPD result after humidity stress", "setting": "[4]", "value": "Tartrate (Form 1)"}
    ]}
  ]
}
